In patent US20080207617A1, “Quinoline Derivatives and Quinazoline Derivatives Inhibiting Autophosphrylation of Flt3 and Medicinal Compositions Containing the Same” (KIRIN BEER KABUSHIKI KAISHA, priority 2002, published 2008) one finds IC50 and inhibition in vivo data, which are given here for four compounds.

What is called IC50 is the concentration that gives 50% inhibition.

One assay concerns MV4-11. The experiment in a line: Cell growth inhibitory test MV4-11 (WST-1). The settings on record: Homo sapiens, MV4-11, 72 h, MV4-11 cells, 3 days culture. It counts as cell-based, human. In a few lines: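 MV4-11 leukemia cells (3×10^3/well, DMEM + 10% FCS) were cultured 3 days with compound in DMSO at 5% CO2. Growth read by WST-1 absorbance at 450 nm (ref 650 nm), normalized to untreated (100%) and cell-free (0%) wells; IC50 from multiple concentrations.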

For the next assay, the target named is T1, FLT3 (Homo sapiens, UniProt P36888).
T1 sequence (P36888 with tags, fused parts or gaps INS600HVDFREYEYD): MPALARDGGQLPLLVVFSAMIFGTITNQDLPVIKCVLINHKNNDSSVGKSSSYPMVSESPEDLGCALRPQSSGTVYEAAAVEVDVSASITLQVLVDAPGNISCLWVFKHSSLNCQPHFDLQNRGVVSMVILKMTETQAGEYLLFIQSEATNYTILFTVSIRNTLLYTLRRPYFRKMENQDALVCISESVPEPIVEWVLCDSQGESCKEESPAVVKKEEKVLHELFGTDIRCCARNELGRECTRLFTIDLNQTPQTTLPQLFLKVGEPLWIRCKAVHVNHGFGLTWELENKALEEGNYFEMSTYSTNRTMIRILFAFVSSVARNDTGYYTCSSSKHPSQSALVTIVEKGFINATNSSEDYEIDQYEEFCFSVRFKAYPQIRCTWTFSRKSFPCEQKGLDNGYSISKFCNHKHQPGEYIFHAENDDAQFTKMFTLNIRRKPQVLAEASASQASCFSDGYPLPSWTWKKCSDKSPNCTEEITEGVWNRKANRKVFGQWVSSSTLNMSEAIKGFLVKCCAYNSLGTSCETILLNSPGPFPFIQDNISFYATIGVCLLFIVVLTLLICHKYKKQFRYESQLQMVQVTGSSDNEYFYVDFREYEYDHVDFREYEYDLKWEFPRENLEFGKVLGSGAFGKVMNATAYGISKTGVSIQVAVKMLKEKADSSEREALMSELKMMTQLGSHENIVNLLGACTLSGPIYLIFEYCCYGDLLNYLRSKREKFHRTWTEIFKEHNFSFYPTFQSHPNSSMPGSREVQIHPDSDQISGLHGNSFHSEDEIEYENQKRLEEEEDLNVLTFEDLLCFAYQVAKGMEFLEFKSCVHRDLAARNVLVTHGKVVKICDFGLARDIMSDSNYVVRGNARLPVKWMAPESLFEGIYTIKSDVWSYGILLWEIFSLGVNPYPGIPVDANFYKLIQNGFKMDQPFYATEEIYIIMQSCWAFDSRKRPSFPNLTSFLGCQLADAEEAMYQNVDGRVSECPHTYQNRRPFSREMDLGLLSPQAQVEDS
The experiment in a line: Inhibitory activity against FLT3 autophosphorylation using ELISA method. It counts as cell-based. The settings on record: MV4-11 cells, 1 hr with compound, read-out: IC50 of FLT3-phosphorylation. On the procedure: Pharmacological Test Example 1
Measurement of Inhibitory Activity Against FLT3 Autophosphorylation Using ELISA Method
Human leukemia cells MV4-11 (ATCC number: CRL-9591) were cultured in an IMDM medium containing 10% fetal calf serum (purchased from SIGMA) within a 5% carbon dioxide incubator until 50 to 90% confluent. The harvested cells were seeded into 96-wells, plates, containing an IMDM medium containing 0.1% fetal calf serum, in a 96-well multiscreen plate in an amount of 5.0×10^5 per well, a solution of the test compound in dimethyl sulfoxide was added to each well, and the cultivation was continued at 37° C. for one hr. The medium was removed, followed by washing with phosphate buffered saline. A lysis buffer (60 μl) (20 mM HEPES (pH 7.4), 150 mM NaCl, 0.2% Triton X-100, 10% glycerol, 5 mM sodium orthovanadylate, 5 mM disodium ethylenediaminetetraacetate, and 2 mM Na4P2O7) was then added thereto. The mixture was shaken at 4° C. for 2 hr to prepare a cell extracts.
Separately, phosphate buffered saline (50 μl, pH 7.4) containing 5 μg/ml of anti-phospho-tyrosine antibody (PY20; purchased from Transduction Laboratories) was added to a 96-well microplate for ELISA (Maxisorp; purchased from NUNC), followed by standing at 4° C. overnight to form a solid phase on the wells. After washing of the plate, 250 μl of a blocking solution was added, followed by standing at room temperature for 3 hr to perform blocking. After washing, the whole quantity of the cell extract was transferred to the wells, and the plate was then allowed to stand at 4° C. overnight. After washing, an anti-FLT3 antibody (Flt3/Flk2 (C-20), purchased from Santa Cruz Biotechnology) was allowed to react at room temperature for 2 hr, and, after washing, a peroxidase-labeled anti-rabbit Ig antibody (purchased from Amersham) was allowed to react at room temperature for one hr. After washing, a chromophoric substrate for peroxidase (purchased from Sumitomo Bakelite Co., Ltd.) was added thereto to initiate a reaction. After a suitable level of color development, a reaction termination solution was added to stop the reaction, and the absorbance at 450 nm was measured with a microplate reader. The FLT3-phosphorylation activity for each well was determined by presuming the absorbance without the addition of the medicament to be 100% FLT3-phosphorylation activity and the absorbance with the addition of a large excess of a positive control (Compound 1, 10 μM) to be 0% FLT3-phosphorylation activity. The concentration of the test compound was varied on several levels, the FLT3-phosphorylation inhibitory activity was determined for each case, and the concentration of the test compound necessary for inhibiting 50% of FLT3-phosphorylation (IC50) was calculated.
For orientation: In an ELISA, binding on a coated surface is turned into a signal by an enzyme label.

The test system of assay [1] is MOLM13. Description: Cell growth inhibitory activities on cultured human leukemia cells MOLM-13 (WST-1). It counts as cell-based. Particulars: Homo sapiens, MOLM-13, 72 h, 3 days culture. (Formazan colour is commonly taken as a measure of viable cells.)
In assay [2] the test system is MOLM13. The experiment in a line: Tumor growth inhibitory activities in nude mice xenograft model inoculated with human leukemia cells MOLM13. It counts as in vivo. The settings on record: Mus musculus, MOLM-13, po, 240 h; 50 mg/kg orally once a day, day 10; read-out: TGIR (%) (measurement date). As to the method: Pharmacological Test Example 5
Tumor Growth Inhibitory Activities in Nude Mice Xenograft Model Inoculated with Human Leukemia Cells
Human leukemia cells MOLM13 (subdivided from Hayashibara Biochemical Laboratories, Inc.) were subcutaneously transplanted into nude mice. […] The test compound suspended or dissolved in 0.5% methylcellulose was orally administered at a dose of 0.1 ml per 10 g body weight once a day for 9 days. For the control group, only vehicle was administered.
The tumor growth inhibition rate (TGIR) was calculated as follows:
The tumor growth inhibition rate (TGIR)=(1−TX/CX)×100
wherein CX represents the volume of tumor at day X for the control group when the tumor volume at the day of the start of the administration (day 1) was presumed to be 1; and TX represents the volume of tumor at day X for test compound administration groups.

Assay [3] has as its system MOLM13. Description: Cell growth inhibitory activity using MTT method (MOLM13). It counts as cell-based, human. Particulars: Homo sapiens, MOLM-13, 72 h, MOLM13 cells. On the procedure: Pharmacological Test Example 3
Measurement of Cell Growth Inhibitory Activity Using MTT Method
Human leukemia cell line MOLM13 (subdivided from Hayashibara Biochemical Laboratories, Inc.) was cultured in an RPMI medium containing 10% fetal calf serum (purchased from Asahi Techno Glass Corporation) within a 5% carbon dioxide incubator until the cell density reached 50 to 90% of the maximum cell density. These cells were seeded into wells, containing an RPMI medium containing 10% fetal calf serum, in a 96-well flat bottom plate in an amount of […] per well. The amount of the solution of the medium in each well was brought to 100 μl, and a test compound was added thereto to 500 ng, 100 ng, 20 ng, and 4 ng per ml. After culture within an incubator for 72 hr, 10 μl of a 5 mg/ml MTT (3-(4,5-dimethylthiazol-2-yl)-2,5-diphenyl tetrazolium bromide) solution (purchased from SIGMA) was added to the medium, and a reaction was allowed to proceed for 4 hr. Thereafter, 100 μl of a 0.04 N hydrochloric acid-isopropanol solution was added to completely dissolve the resultant MTT formazan crystal. After the dissolution, absorbance at 550 nm was measured using 620 nm as a reference wavelength with a microplate reader (DIGISCAN) (It is regarded that, in the MTT method, the viable cell count is reflected, and linearity is observed in a cell count per well range of 5×10^5 to 2×10^2 cells). After 72 hr, the absorbance of only the medium free from cells was subtracted from the absorbance of the well without the addition of the test compound to determine a value which was presumed to be 100%. On the other hand, the absorbance with the addition of the compound was expressed in terms of % growth.

Each structure is given as a SMILES string. Counter-ions that a name gives are not always drawn.

For `COc1cc2nccc(Oc3ccc(NC(=O)NCCC(C)(C)C)cc3C)c2cc1OC` [Compound 3, 1-[4-(6,7-Dimethoxy-quinolin-4-yloxy)-3-methyl-phenyl]-3-(3,3-dimethyl-butyl)-urea], the IC50 came out at 2 nM with MV4-11, 7 nM on FLT3 and 3 nM in the assay on MOLM13 [1].

On to `COc1cc2nccc(Oc3ccc(NC(=O)NC4CC(C)CC(C)(C)C4)cc3F)c2cc1OC` (centres unmarked) [Compound 15, 1-[4-(6,7-Dimethoxy-quinolin-4-yloxy)-3-fluoro-phenyl]-3-(3,3,5-trimethyl-cyclohexyl)-urea], for which the IC50 in the assay with MV4-11 came to 11 nM; in the assay with MOLM13 [1] it was 22 nM; with MOLM13 [3] it was 9.5 nM. In addition, the inhibition in vivo at 50 mg/kg in the assay on MOLM13 [2] was 89.4%.

For `COc1cc2c(Oc3ccc(NC(=O)NCCC(C)(C)C)cc3)ccnc2cc1OCCN1CCCCC1` [Compound 40, 1-{4-[6-Methoxy-7-(2-piperidin-1-yl-ethoxy)-quinolin-4-yloxy]-phenyl}-3-(3,3-dimethyl-butyl)-urea hydrochloride], the figures for the IC50 in the assay with MV4-11, at FLT3 and in the assay with MOLM13 [1] were 1 nM, 93 nM and 2 nM, respectively.

Regarding `COc1cc2nccc(Oc3ccc(NC(=O)NC4CC(C)CC(C)(C)C4)cc3Cl)c2cc1OC` (centres unmarked) [Compound 13, 1-[3-Chloro-4-(6,7-dimethoxy-quinolin-4-yloxy)-phenyl]-3-(3,3,5-trimethyl-cyclohexyl)-urea], the values for the IC50 in the assay on MV4-11, in the assay on MOLM13 [1] and with MOLM13 [3] were 18 nM, 21 nM and 3.87 nM, respectively. Moreover, the inhibition in vivo at 50 mg/kg in the assay with MOLM13 [2] was 84.8%.
